What is called pKi is the Ki on a negative log10 scale, so that one unit is a factor of ten.

Structures are written as SMILES. pKi: −log10 of the molar value. Where two headings read alike, the source gives them in different places.

One assay concerns the target CDK2/Cyclin A (Homo sapiens, UniProt P24941). The experiment in a line: CDK2/Cyclin A assay ([32P]ATP, Rb fragment). The class given is biochemical.
Another assay deals with CDK4/Cyclin D3 complex (Homo sapiens, UniProt P11802). The experiment in a line: CDK4/Cyclin D assay ([32P]ATP, Rb fragment).
Chain of CDK4/Cyclin D3 complex (P11802 whole entry, the tested form may be a part): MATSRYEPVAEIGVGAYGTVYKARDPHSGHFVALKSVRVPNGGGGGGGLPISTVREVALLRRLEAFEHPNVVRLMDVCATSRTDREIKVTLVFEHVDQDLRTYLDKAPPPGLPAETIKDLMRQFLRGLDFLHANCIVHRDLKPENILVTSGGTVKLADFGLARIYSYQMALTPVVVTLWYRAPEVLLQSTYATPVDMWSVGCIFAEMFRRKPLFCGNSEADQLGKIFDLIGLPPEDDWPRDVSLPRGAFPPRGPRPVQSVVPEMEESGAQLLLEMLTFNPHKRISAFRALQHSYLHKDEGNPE
Chain of CDK4/Cyclin D3 complex (P30281 whole entry partner, the tested form may be a part): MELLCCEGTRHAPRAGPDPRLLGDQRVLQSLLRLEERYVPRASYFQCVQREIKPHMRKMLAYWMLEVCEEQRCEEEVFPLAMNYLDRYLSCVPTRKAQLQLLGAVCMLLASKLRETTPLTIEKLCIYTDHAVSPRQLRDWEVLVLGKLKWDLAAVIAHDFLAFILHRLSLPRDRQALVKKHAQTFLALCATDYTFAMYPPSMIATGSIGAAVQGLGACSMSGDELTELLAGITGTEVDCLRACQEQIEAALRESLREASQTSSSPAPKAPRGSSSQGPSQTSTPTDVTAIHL
Assay [1] deals with unphosphorylated VEGF-R2Δ50 (FLVK) (Homo sapiens, UniProt P35968, DEL940-989/E990V). The experiment in a line: VEGF-R2 coupled spectrophotometric assay, unphosphorylated VEGF-R2Δ50 (FLVK). The conditions noted are these: FLVK Ki, Table 1.
Chain of unphosphorylated VEGF-R2Δ50 (FLVK) (P35968 with tags, fused parts or gaps DEL940-989/E990V limits assumed): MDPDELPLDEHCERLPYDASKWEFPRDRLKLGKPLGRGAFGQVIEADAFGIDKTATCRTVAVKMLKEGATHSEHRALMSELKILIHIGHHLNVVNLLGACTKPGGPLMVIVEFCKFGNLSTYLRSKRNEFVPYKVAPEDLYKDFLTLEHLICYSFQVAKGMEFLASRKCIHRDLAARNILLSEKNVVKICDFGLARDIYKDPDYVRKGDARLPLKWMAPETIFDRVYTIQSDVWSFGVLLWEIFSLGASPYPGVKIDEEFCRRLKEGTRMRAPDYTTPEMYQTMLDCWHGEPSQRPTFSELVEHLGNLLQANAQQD
The target of a further assay is T1, human CHK1 (FL-CHK1) (Homo sapiens, UniProt O14757).
T1 construct: C-terminally His-tagged full-length human CHK1 (FL-CHK1); made in house; host or cells: baculovirus/insect cell system
T1 sequence (O14757 1-476): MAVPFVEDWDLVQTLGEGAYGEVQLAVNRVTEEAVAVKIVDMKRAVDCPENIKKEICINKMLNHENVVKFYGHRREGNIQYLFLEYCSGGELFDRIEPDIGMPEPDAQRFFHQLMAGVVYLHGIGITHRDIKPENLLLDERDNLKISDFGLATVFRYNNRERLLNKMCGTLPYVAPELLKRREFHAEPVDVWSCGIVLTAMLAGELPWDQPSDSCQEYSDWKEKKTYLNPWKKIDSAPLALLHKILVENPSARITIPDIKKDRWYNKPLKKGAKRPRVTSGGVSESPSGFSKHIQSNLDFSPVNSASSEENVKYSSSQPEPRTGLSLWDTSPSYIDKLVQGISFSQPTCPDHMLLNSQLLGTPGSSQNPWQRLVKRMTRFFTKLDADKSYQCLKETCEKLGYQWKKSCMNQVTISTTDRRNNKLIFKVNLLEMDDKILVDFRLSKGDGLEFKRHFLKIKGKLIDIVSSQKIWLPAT
The assay is described as follows: CHK1 assay (coupled spectrophotometric, Syntide-2). The class given is biochemical. The conditions noted are these: for pKi: read-out: CHK-1 Ki; for CHK-1 @ 20 μM: Table 4, compound at 20 μM. The text has this:
CHK1 Construct for Assay: C-terminally His-tagged full-length human CHK1 (FL-CHK1) was expressed using the baculovirus/insect cell system. […] The protein was purified by conventional chromatographic techniques.
The production of ADP from ATP that accompanies phosphoryl transfer to the synthetic substrate peptide Syntide-2 ([…]) was coupled to oxidation of NADH using phosphoenolpyruvate (PEP) through the actions of pyruvate kinase (PK) and lactic dehydrogenase (LDH). The oxidation of NADH was monitored by following the decrease of absorbance at 340 nm (ε340=6.22 cm^−1 mM^−1) using a HP8452 spectrophotometer. […] Assays were initiated with 10 nM of FL-CHK1. Ki values were determined by measuring initial enzyme activity in the presence of varying concentrations of test compounds. The data were analyzed using Enzyme Kinetic and Kaleidagraph software.

Turning to `Oc1ccc(-c2ccc3c(-c4nc5ccccc5[nH]4)n[nH]c3c2)c(O)c1` [Example 24(f), 3-1H-Benzoimidazol-2-yl-6-(2,4-dihydroxyphenyl)-1H-indazole], the pKi at CDK2/Cyclin A (Table 2) was 8.14; on CDK4/Cyclin D3 complex it was 8.13.

In the case of `Cc1cc(O)cc(C)c1-c1ccc2c(-c3nc4ccccc4[nH]3)n[nH]c2c1` [Example 24(j), 3-1H-Benzoimidazol-2-yl-6-(2,6-dimethyl-4-hydroxyphenyl)-1H-indazole], the pKi was 5.68 at CDK2/Cyclin A (Table 2) and 6.49 at CDK4/Cyclin D3 complex. As for `COc1cc(O)ccc1-c1ccc2c(-c3nc4cc(N(C)C)ccc4[nH]3)n[nH]c2c1` [Example 25(h), 3-(5-Dimethylamino-1H-benzoimidazol-2-yl)-6-(2-methoxy-4-hydroxy-phenyl)-1H-indazole], the pKi was 6.77 at CDK2/Cyclin A (Table 2) and 7.62 at CDK4/Cyclin D3 complex. Turning to `C=C(c1ccccc1)c1ccc2c(/C=C/c3ccccc3)n[nH]c2c1` [Example 10, 6-(1-Phenyl-vinyl)-3-styryl-1H-indazole], the figures for the pKi (in assay [1]; at human CHK1 (FL-CHK1) (Table 1)) were 8.05 and 5.04, respectively. As for `COc1cc(O)ccc1-c1ccc2c(-c3nc4ccc(C(=O)NCCN5CCOCC5)cc4[nH]3)n[nH]c2c1` [Example 25(b), 3-[6-(2-Morpholin-4-yl-ethylcarbamoyl)-1H-benzoimidazol-2-yl]-6-(2-methoxy-4-hydroxyphenyl)-1H-indazole], the pKi on CDK4/Cyclin D3 complex is 7.32.

Compound `Cc1cc(O)ccc1-c1ccc2c(-c3nc4ccccc4[nH]3)n[nH]c2c1` [Example 24(b), 4-[3-(1-H-Benzoimidazol-2-yl)-1-H-indazol-6-yl]-3-methyl-phenol] showed a pKi at CDK4/Cyclin D3 complex of 8.49.

As to `COc1cc(O)ccc1-c1ccc2c(-c3nc4c(N5CCN(C)CC5)cccc4[nH]3)n[nH]c2c1` [Example 25(d), 3-[4-(4-Methylpiperazin-1-yl)-1H-benzoinidazol-2-yl]-6-(2-methoxy-4-hydroxyphenyl)-1H-indazole], the pKi on CDK2/Cyclin A (Table 2) was 6.80; at CDK4/Cyclin D3 complex, 7.01. At CDK4/Cyclin D3 complex, `COc1cc(O)ccc1-c1ccc2c(-c3nc4ccc(N5CCN(C)CC5)cc4[nH]3)n[nH]c2c1` [Example 25(c), 3-[6-(4-Methylpiperazin-1-yl)-1H-benzoimidazol-2-yl]-6-(2-methoxy-4-hydroxyphenyl)-1H-indazole] showed a pKi of 7.81. Turning to `CNC(=O)c1ccc2[nH]c(-c3n[nH]c4cc(-c5ccc(O)cc5OC)ccc34)nc2c1` [Example 25(g), 3-(5-Methylcarbamoyl-1H-benzoimidazol-2-yl)-6-(2-methoxy-4-hydroxyphenyl)-1H-indazole], the pKi is 7.10 on CDK2/Cyclin A (Table 2) and 7.68 on CDK4/Cyclin D3 complex. With `Nc1cccc(Oc2ccc3c(/C=C/c4ccccc4)n[nH]c3c2)c1` [Example 7, 3-(Styryl-1H-indazol-6-yloxy)-phenylamine], the pKi was 7.74 in assay [1] and 5.89 at human CHK1 (FL-CHK1) (Table 1). Take `C(=C\c1n[nH]c2cc(-c3ccncc3)ccc12)/c1ccc[nH]1` [Example 29(t), 6-Pyrid-4-yl-3-E-[2-(1H-pyrrol-2-yl)ethenyl]-1H-indazole]: the pKi at human CHK1 (FL-CHK1) (Table 3) was 7.14. As to `O=C(Nc1ccc2[nH]c(=O)[nH]c2c1)c1ccc2c(-c3nc4ccccc4[nH]3)n[nH]c2c1` [drawing 1232], at human CHK1 (FL-CHK1), the “CHK-1 @ 20 μM” value came to 32.3. With `COc1c(O)cccc1-c1ccc2c(-c3nc4ccccc4[nH]3)n[nH]c2c1` [Example 24(p), 3-1H-Benzoinidazol-2-yl-6-(2-methoxy-3-hydroxyphenyl)-1H-indazole], the pKi was 7.05 at CDK2/Cyclin A (Table 2) and 7.04 on CDK4/Cyclin D3 complex. Regarding `Cc1nc(/C=C/c2n[nH]c3cc(-c4ccncc4)ccc23)cs1` [29(j), 6-Pyrid-4-yl-3-E-[2-(2-methylthiazol-4-yl)ethenyl]-1H-indazole], the pKi at human CHK1 (FL-CHK1) (Table 3) was 6.27. Take `Fc1cccc(/C=C/c2n[nH]c3cc(-c4ccncc4)ccc23)c1F` [29(l), 6-Pyrid-4-yl-3-E-[2-(2,3-difluorophenyl)ethenyl]-1H-indazole]: the pKi on CDK2/Cyclin A (Table 3) is 5.51; at CDK4/Cyclin D3 complex, 5.30.

Consider `O=C(NC1CC1)c1ccc2c(-c3nc4ccccc4[nH]3)n[nH]c2c1` [Example 53(b), 3-(1H-Benzoimidazol-2-yl)-N-cyclopropyl-1H-indazole-6-carboxamide], for which the pKi on human CHK1 (FL-CHK1) (Table 3) is 5.85.

On to `C(=C\c1n[nH]c2cc(-c3ccncc3)ccc12)/c1ccc(-c2ccccc2)cc1` [Example 29(d), 6-Pyrid-4-yl-3-E-[2-(biphenyl-4-yl)ethenyl]-1H-indazole], for which the negative-log Ki (pKi) on human CHK1 (FL-CHK1) (Table 3) was 5.00. On to `COc1cc(-c2ccc3c(-c4nc5ccccc5[nH]4)n[nH]c3c2)c(CO)cc1O` [Example 24(n), 3-1H-Benzoimidazol-2-yl-6-(2-(hydroxymethyl)-5-methoxy-4-hydroxy-phenyl)-1H-indazole], for which the pKi was 7.46 at CDK2/Cyclin A (Table 2) and 7.72 at CDK4/Cyclin D3 complex. In the case of `O=C(NC1CCS(=O)(=O)C1)c1ccc2c(-c3nc4ccccc4[nH]3)n[nH]c2c1` (centres unmarked) [drawing 1226], on human CHK1 (FL-CHK1), the “CHK-1 @ 20 μM” value turned out to be 24.2. On to `COC(=O)c1ccc(NC(=O)c2ccc3c(-c4nc5ccccc5[nH]4)n[nH]c3c2)o1` [drawing 1258], for which the “CHK-1 @ 20 μM” value at human CHK1 (FL-CHK1) is 42.9. Regarding `COc1cc(O)ccc1-c1ccc2c(-c3nc4ccc(S(N)(=O)=O)cc4[nH]3)n[nH]c2c1` [Example 25(i), 3-(5-Aminosulfonyl-1H-benzoimidazol-2-yl)-6-(2-methoxy-4-hydroxy-phenyl)-1H-indazole], the figures for the pKi on CDK2/Cyclin A (Table 2) and at CDK4/Cyclin D3 complex were 7.68 and 7.70, respectively. Regarding `O=C(NOCc1ccccc1)c1ccc2c(-c3nc4ccccc4[nH]3)n[nH]c2c1` [Example 53(f), 3-(1H-Benzoimidazol-2-yl)-N-benzyloxy-1H-indazole-6-carboxamide], the pKi at human CHK1 (FL-CHK1) (Table 3) is 5.14. For the compound `O=C(Nc1ccc(O)cc1)c1ccc2c(-c3nc4cc5ccccc5cc4[nH]3)n[nH]c2c1` [Example 54(d), 3-[1H-Naphtho(2,3-d)imidazol-2-yl]-N-(4-hydroxyphenyl)-1H-indazole-6-carboxamide], the pKi at human CHK1 (FL-CHK1) (Table 3) was 6.17. `Fc1cc(F)cc(/C=C/c2n[nH]c3cc(-c4ccncc4)ccc23)c1` [Example 29(m), 6-Pyrid-4-yl-3-E-[2-(3,5-difluorophenyl)ethenyl]-1H-indazole]: the pKi at human CHK1 (FL-CHK1) (Table 3) is 6.00. `O=C(Nc1ccc(O)cc1)c1ccc2c(-c3nc4cc(C(F)(F)F)ccc4[nH]3)n[nH]c2c1` [Example 54(h), 3-(5-Trifluoromethyl-1H-benzoimidazol-2-yl)-N-(4-hydroxyphenyl)-1H-indazole-6-carboxamide]: on human CHK1 (FL-CHK1) (Table 3), the pKi is 6.00. In the case of `O=C(Nc1cnccn1)c1ccc2c(-c3nc4ccccc4[nH]3)n[nH]c2c1` [drawing 1245], at human CHK1 (FL-CHK1), the “CHK-1 @ 20 μM” value came to 36.3.

For `O=C(Nc1ncnc2[nH]cnc12)c1ccc2c(-c3nc4ccccc4[nH]3)n[nH]c2c1` [drawing 1250], on human CHK1 (FL-CHK1), the “CHK-1 @ 20 μM” value is given as 38.6. In the case of `C(=C\c1n[nH]c2cc(-c3cccc4[nH]ccc34)ccc12)/c1ccccc1` [Example 27(g), 6-Indol-4-yl-3-E-styryl-1H-indazole], the pKi on human CHK1 (FL-CHK1) (Table 3) was 6.07.

As for `Cc1ccc2[nH]c(-c3n[nH]c4cc(C(=O)Nc5ccc(O)cc5)ccc34)nc2c1C` [Example 54(f), 3-(4,5-Dimethyl-1H-benzoimidazol-2-yl)-N-(4-hydroxyphenyl)-1H-indazole-6-carboxamide], at human CHK1 (FL-CHK1) (Table 3), the pKi was 5.54. The compound `COc1cc(O)ccc1-c1ccc2c(-c3ncc[nH]3)n[nH]c2c1` [Example 25(e), 3-Imdazol-2-yl-6-(2-methoxy-4-hydroxyphenyl)-1H-indazole] showed a pKi on CDK4/Cyclin D3 complex of 6.74. With `Brc1cccc(Oc2ccc3c(/C=C/c4ccccc4)n[nH]c3c2)c1` [Example 8(d), 6-(3-Bromo-phenoxy)-3-styryl-1H-indazole], the figures for the pKi (in assay [1]; at human CHK1 (FL-CHK1) (Table 1)) were 7.96 and 4.09, respectively. As to `C=CCC(NC(=O)c1ccc2c(-c3nc4ccccc4[nH]3)n[nH]c2c1)c1ccccn1` (centres unmarked) [drawing 1259], the “CHK-1 @ 20 μM” value on human CHK1 (FL-CHK1) worked out at 24.1. As to `O=C(Nc1ccc(O)c(F)c1)c1ccc2c(-c3nc4ccccc4[nH]3)n[nH]c2c1` [Example 53(g), 3-(1H-Benzoimidazol-2-yl)-N-(3-fluoro-4-hydroxyphenyl)-1H-indazole-6-carboxamide], the pKi at human CHK1 (FL-CHK1) (Table 3) is 5.82. Regarding `O=C(Nc1cc(O)[nH]n1)c1ccc2c(-c3nc4ccccc4[nH]3)n[nH]c2c1`, the “CHK-1 @ 20 μM” value on human CHK1 (FL-CHK1) is listed as 38.6.

As for `COc1ccc(NC(=O)c2ccc3c(-c4nc5ccccc5[nH]4)n[nH]c3c2)cc1O` [drawing 1257], the “CHK-1 @ 20 μM” value at human CHK1 (FL-CHK1) stood at 32.3.

The record behind these values is US6534524B1, “Indazole compounds and pharmaceutical compositions for inhibiting protein kinases, and methods for their use” (Agouron Pharmaceuticals, Inc., priority 1999, dated 2003).
